These results are taken from patent EP1935887A1, “Heterocyclic substituted carbonyl derivatives and their use as dopamine D3 receptor ligands” (Aventis Pharmaceuticals Inc., priority 2001, dated 2002).

The target in the experiment is T1, Cloned Human Dopamine D3 Receptors (Homo sapiens, UniProt P35462).
T1 construct: expressed in transfected cells; membrane homogenate
Briefly: [N-Methyl-3H]Spiroperidol binding to cloned human dopamine D3 receptors. In outline: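 Membranes from CHO cells stably expressing human D3 receptor, homogenised in 10% DMSO and stored at -80°C. Binding uses [N-methyl-3H]spiroperidol in Tris buffer, pH 7.7.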

Setting [1] is: Table 2, unit inferred, read-out: d3Ki.
Setting [2] is: Table 2 part the 10th table, read-out: d3Ki.
Setting [3] is: d3Ki, Table 2 part the 10th table.

Molecules are shown by their SMILES. Like-named read-outs stand apart in the source and are kept apart here.

T1 sequence (P35462 whole entry): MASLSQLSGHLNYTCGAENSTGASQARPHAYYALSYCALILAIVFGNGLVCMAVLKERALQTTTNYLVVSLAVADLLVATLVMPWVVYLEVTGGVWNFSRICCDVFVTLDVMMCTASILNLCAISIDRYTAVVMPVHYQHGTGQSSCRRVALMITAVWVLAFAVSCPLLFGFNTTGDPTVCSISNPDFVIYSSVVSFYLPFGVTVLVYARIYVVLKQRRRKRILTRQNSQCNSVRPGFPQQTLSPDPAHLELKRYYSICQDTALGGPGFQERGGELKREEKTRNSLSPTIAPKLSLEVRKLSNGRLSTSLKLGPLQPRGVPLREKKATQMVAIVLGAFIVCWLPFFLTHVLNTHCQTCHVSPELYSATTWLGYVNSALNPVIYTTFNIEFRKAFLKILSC

For `O=C(NCC1CC1)[C@@H]1C[C@H]1CN1CCN(c2csc3cc(C(F)(F)F)ccc23)CC1` [compound 826067], the Ki under setting [1] was 19.3 nM.

For `O=C(NCc1ccccc1)[C@@H]1C[C@H]1CN1CCN(c2csc3cc(C(F)(F)F)ccc23)CC1` [compound 826068], the Ki under setting [1] came out at 54.6 nM.

For the molecule `O=C(NCc1ccco1)[C@@H]1C[C@H]1CN1CCN(c2csc3cc(C(F)(F)F)ccc23)CC1` [compound 826069], the Ki under setting [1] is 27.2 nM.

Regarding `O=C(NCc1cccs1)[C@@H]1C[C@H]1CN1CCN(c2csc3cc(C(F)(F)F)ccc23)CC1` [compound 826070], under setting [1], the Ki was determined as 12.6 nM.

As for `O=C(NCc1ccc(C(F)(F)F)cc1)[C@@H]1C[C@H]1CN1CCN(c2csc3cc(C(F)(F)F)ccc23)CC1` [compound 826071], the Ki under setting [1] came to 165 nM.

Turning to `Cc1cccc(CNC(=O)[C@@H]2C[C@H]2CN2CCN(c3csc4cc(C(F)(F)F)ccc34)CC2)c1` [compound 826072], the Ki under setting [1] came out at 62.6 nM.

Regarding `O=C(NC1CCC1)[C@@H]1C[C@H]1CN1CCN(c2csc3cc(C(F)(F)F)ccc23)CC1` [compound 826073], under setting [1], the Ki turned out to be 32.3 nM.

For `C[C@H](NC(=O)[C@@H]1C[C@H]1CN1CCN(c2csc3cc(C(F)(F)F)ccc23)CC1)c1ccccc1` [compound 826074], under setting [1], the Ki was determined as 72.6 nM.

As for `O=C(NCc1cccc2ccccc12)[C@@H]1C[C@H]1CN1CCN(c2csc3cc(C(F)(F)F)ccc23)CC1` [compound 826075], the Ki under setting [1] stood at 55.6 nM.

As to `O=C(NC1CCCCC1)[C@@H]1C[C@H]1CN1CCN(c2csc3cc(C(F)(F)F)ccc23)CC1` [compound 826076], the Ki under setting [1] is 15 nM.

Consider `COc1ccc(CNC(=O)[C@@H]2C[C@H]2CN2CCN(c3csc4cc(C(F)(F)F)ccc34)CC2)c(OC)c1` [compound 826077], for which, under setting [1], the Ki was 88.9 nM.

In the case of `O=C(Nc1cccc2c1CCCC2)[C@@H]1C[C@H]1CN1CCN(c2csc3cc(C(F)(F)F)ccc23)CC1` [compound 826078], under setting [1], the Ki is 162 nM.

For the molecule `COc1cc(CNC(=O)[C@@H]2C[C@H]2CN2CCN(c3csc4cc(C(F)(F)F)ccc34)CC2)cc(OC)c1OC` [compound 826079], the Ki under setting [1] is 106 nM.

In the case of `O=C(NCCc1ccccn1)[C@@H]1C[C@H]1CN1CCN(c2csc3cc(C(F)(F)F)ccc23)CC1` [compound 826080], the Ki under setting [1] is 14.8 nM.

As for `O=C([C@@H]1C[C@H]1CN1CCN(c2csc3cc(C(F)(F)F)ccc23)CC1)N1CCCCC1` [compound 826081], under setting [2], the Ki is 18.6 nM.

On to `CN(C)c1ccc(CNC(=O)[C@@H]2CCCC[C@H]2CN2CCN(c3csc4cc(C(F)(F)F)ccc34)CC2)cc1` [compound 826086], for which, under “read-out: d3Ki”, the Ki was 103 nM.

Regarding `Cc1cccc(CNC(=O)[C@@H]2CCCC[C@H]2CN2CCN(c3csc4cc(C(F)(F)F)ccc34)CC2)c1` [compound 826092], for the setting “read-out: d3Ki”, the Ki was determined as 293 nM.

For the molecule `O=C(NCc1ccc2c(c1)OCO2)[C@@H]1CCCC[C@H]1CN1CCN(c2csc3cc(C(F)(F)F)ccc23)CC1` [compound 826098], the Ki (read-out: d3Ki) was determined as 451 nM.

Turning to `O=C(Nc1cccnc1)[C@@H]1CCCC[C@H]1CN1CCN(c2csc3cc(C(F)(F)F)ccc23)CC1` [compound 826100], under “read-out: d3Ki”, the Ki is 193 nM.

Consider `O=C(NCc1nc2ccccc2[nH]1)[C@@H]1CCCC[C@@H]1CN1CCN(c2csc3cc(C(F)(F)F)ccc23)CC1` [compound 826102], for which, where the note is “read-out: d3Ki”, the Ki is 210 nM.

As to `CN(C)c1ccc(CNC(=O)[C@@H]2CCCC[C@@H]2CN2CCN(c3csc4cc(C(F)(F)F)ccc34)CC2)cc1` [compound 826104], the Ki (read-out: d3Ki) was 16.8 nM.

As to `O=C(NC1CC1)[C@@H]1CCCC[C@@H]1CN1CCN(c2csc3cc(C(F)(F)F)ccc23)CC1` [compound 826105], the Ki (read-out: d3Ki) is 690 nM.

As to `O=C(NCc1ccccc1)[C@@H]1CCCC[C@@H]1CN1CCN(c2csc3cc(C(F)(F)F)ccc23)CC1` [compound 826106], the Ki (read-out: d3Ki) stood at 230 nM.

As to `O=C(NCc1ccc(C(F)(F)F)cc1)[C@@H]1CCCC[C@@H]1CN1CCN(c2csc3cc(C(F)(F)F)ccc23)CC1` [compound 826108], the Ki (read-out: d3Ki) was 100 nM.

For the molecule `O=C(NC1CCCCC1)[C@@H]1CCCC[C@@H]1CN1CCN(c2csc3cc(C(F)(F)F)ccc23)CC1` [compound 826113], where the note is “read-out: d3Ki”, the Ki turned out to be 200 nM.

For `O=C(NCc1ccc2c(c1)OCO2)[C@@H]1CCCC[C@@H]1CN1CCN(c2csc3cc(C(F)(F)F)ccc23)CC1` [compound 826115], the Ki (read-out: d3Ki) came out at 72.3 nM.

Take `COc1cc(CNC(=O)[C@@H]2CCCC[C@@H]2CN2CCN(c3csc4cc(C(F)(F)F)ccc34)CC2)cc(OC)c1OC` [compound 826116]: the Ki (read-out: d3Ki) was 59.9 nM.

Take `O=C(NCCc1ccccn1)[C@@H]1CCCC[C@@H]1CN1CCN(c2csc3cc(C(F)(F)F)ccc23)CC1` [compound 826117]: the Ki (read-out: d3Ki) amounted to 241 nM.

Regarding `O=C(Nc1cccnc1)[C@@H]1CCCC[C@@H]1CN1CCN(c2csc3cc(C(F)(F)F)ccc23)CC1` [compound 826118], the Ki (read-out: d3Ki) stood at 568 nM.

Consider `O=C([C@@H]1CCCC[C@@H]1CN1CCN(c2csc3cc(C(F)(F)F)ccc23)CC1)N1CCCCC1` [compound 826119], for which, under setting [2], the Ki amounted to 219 nM.

As to `O=C(NCc1ccccn1)[C@@H]1CCCC[C@H]1CN1CCN(c2csc3cc(C(F)(F)F)ccc23)CC1` [compound 826120], the Ki (read-out: d3Ki) is 487 nM.

In the case of `O=C(NC1CC1)[C@@H]1CCCC[C@H]1CN1CCN(c2csc3cc(C(F)(F)F)ccc23)CC1` [compound 826121], the Ki (read-out: d3Ki) is 502 nM.

Turning to `O=C(NCc1ccco1)[C@@H]1CCCC[C@@H]1CN1CCN(c2csc3cc(C(F)(F)F)ccc23)CC1` [compound 826122], the Ki (read-out: d3Ki) was determined as 130 nM.

With `O=C(NC1CCCCCCCC1)[C@@H]1C[C@H]1CN1CCN(c2csc3cc(C(F)(F)F)ccc23)CC1` [compound 826655], the Ki under setting [1] worked out at 31 nM.

Consider `O=C(NCCN1CCOCC1)[C@@H]1C[C@H]1CN1CCN(c2csc3cc(C(F)(F)F)ccc23)CC1` [compound 826656], for which, under setting [1], the Ki worked out at 45 nM.

As to `O=C([C@@H]1C[C@H]1CN1CCN(c2csc3cc(C(F)(F)F)ccc23)CC1)N1CCCC1` [compound 826657], the Ki under setting [2] stood at 14 nM.

As for `O=C(NC1CCCC1)[C@@H]1C[C@H]1CN1CCN(c2csc3cc(C(F)(F)F)ccc23)CC1` [compound 826658], the Ki under setting [1] turned out to be 17 nM.

For the molecule `CCOC(=O)C1CN(C(=O)[C@@H]2C[C@H]2CN2CCN(c3csc4cc(C(F)(F)F)ccc34)CC2)CCC1=O` (stereo partly shown) [compound 826659], the Ki under setting [2] came to 140 nM.

For the molecule `O=C([C@@H]1C[C@H]1CN1CCN(c2csc3cc(C(F)(F)F)ccc23)CC1)N1CCC(O)CC1` [compound 826660], the Ki under setting [2] was 53 nM.

`NC(=O)C1CCN(C(=O)[C@@H]2C[C@H]2CN2CCN(c3csc4cc(C(F)(F)F)ccc34)CC2)CC1` [compound 826661]: the Ki under setting [2] was 25 nM.

As to `O=C([C@@H]1C[C@H]1CN1CCN(c2csc3cc(C(F)(F)F)ccc23)CC1)N1CCC(Cc2ccccc2)CC1` [compound 826662], the Ki under setting [2] turned out to be 69 nM.

In the case of `O=C([C@@H]1C[C@H]1CN1CCN(c2csc3cc(C(F)(F)F)ccc23)CC1)N1CCC(N2CCCC2)CC1` [compound 826664], the Ki under setting [3] came out at 9.4 nM.

As to `C[C@H]1CC[C@H](NC(=O)[C@@H]2C[C@H]2CN2CCN(c3csc4cc(F)ccc34)CC2)CC1` [compound 826665], the Ki (read-out: d3Ki) amounted to 1.9 nM.

Consider `COC(=O)[C@H]1CC[C@H](NC(=O)[C@@H]2C[C@H]2CN2CCN(c3csc4cc(F)ccc34)CC2)CC1` [compound 826666], for which the Ki (read-out: d3Ki) turned out to be 6.3 nM.

On to `CC[C@H]1CC[C@H](NC(=O)[C@@H]2C[C@H]2CN2CCN(c3csc4cc(F)ccc34)CC2)CC1` [compound 826667], for which, where the note is “read-out: d3Ki”, the Ki came to 2.5 nM.

Take `O=C(NC1CCCCCCCC1)[C@@H]1C[C@H]1CN1CCN(c2csc3cc(F)ccc23)CC1` [compound 826668]: the Ki (read-out: d3Ki) was 3.9 nM.

As to `O=C([C@@H]1C[C@H]1CN1CCN(c2csc3cc(F)ccc23)CC1)N1CCCC1` [compound 826669], under setting [2], the Ki turned out to be 0.24 nM.

Take `O=C(NC1CCCC1)[C@@H]1C[C@H]1CN1CCN(c2csc3cc(F)ccc23)CC1` [compound 826670]: the Ki (read-out: d3Ki) turned out to be 4.2 nM.

In the case of `CCOC(=O)C1CN(C(=O)[C@@H]2C[C@H]2CN2CCN(c3csc4cc(F)ccc34)CC2)CCC1=O` (stereo partly shown) [compound 826671], the Ki under setting [2] turned out to be 6.8 nM.

Consider `O=C([C@@H]1C[C@H]1CN1CCN(c2csc3cc(F)ccc23)CC1)N1CCC(O)CC1` [compound 826672], for which the Ki under setting [3] was determined as 0.64 nM.

Consider `O=C([C@@H]1C[C@H]1CN1CCN(c2csc3cc(F)ccc23)CC1)N1CCC(Cc2ccccc2)CC1` [compound 826673], for which the Ki under setting [2] was 7.9 nM.

For `N#CC1(c2ccccc2)CCN(C(=O)[C@@H]2C[C@H]2CN2CCN(c3csc4cc(F)ccc34)CC2)CC1` [compound 826674], under setting [2], the Ki is 48 nM.

For the molecule `CC1CCCC(C)N1C(=O)[C@@H]1C[C@H]1CN1CCN(c2csc3cc(F)ccc23)CC1` (stereo partly shown) [compound 826675], the Ki under setting [2] was 8 nM.

`O=C([C@@H]1C[C@H]1CN1CCN(c2csc3cc(F)ccc23)CC1)N1CCCCC1` [compound 826676]: under setting [2], the Ki stood at 2 nM.

In the case of `O=C(NC1CCCCC1)[C@@H]1C[C@H]1CN1CCN(c2csc3cc(F)ccc23)CC1` [compound 826677], the Ki (read-out: d3Ki) stood at 2.3 nM.

Regarding `CCOC(=O)[C@H]1CC[C@H](NC(=O)[C@@H]2C[C@H]2CN2CCCN(c3csc4cc(C(F)(F)F)ccc34)CC2)CC1` [compound 826679], the Ki (read-out: d3Ki) amounted to 9.1 nM.

Take `CC[C@H]1CC[C@H](NC(=O)[C@@H]2C[C@H]2CN2CCCN(c3csc4cc(C(F)(F)F)ccc34)CC2)CC1` [compound 826680]: the Ki (read-out: d3Ki) was 58 nM.

Turning to `O=C(NC1CCCCCCCC1)[C@@H]1C[C@H]1CN1CCCN(c2csc3cc(C(F)(F)F)ccc23)CC1` [compound 826681], the Ki (read-out: d3Ki) is 48 nM.

Consider `O=C(NCCN1CCOCC1)[C@@H]1C[C@H]1CN1CCCN(c2csc3cc(C(F)(F)F)ccc23)CC1` [compound 826682], for which the Ki (read-out: d3Ki) was 103 nM.

As for `O=C([C@@H]1C[C@H]1CN1CCCN(c2csc3cc(C(F)(F)F)ccc23)CC1)N1CCCC1` [compound 826683], under setting [2], the Ki was 3.7 nM.

Turning to `O=C(NC1CCCC1)[C@@H]1C[C@H]1CN1CCCN(c2csc3cc(C(F)(F)F)ccc23)CC1` [compound 826684], the Ki (read-out: d3Ki) stood at 7.9 nM.
